In brackets after ≈: the same amount, converted by molar mass. Like-named read-outs stand apart in the source and are kept apart here.
What was measured:
[1] = test system: S. epidermidis 1228; assay: MIC by broth microdilution (experiment B); type: cell-based; conditions: Staphylococcus epidermidis, combination 1:1, value = mg/L total drug
Method: (§1) Minimum inhibitory concentrations (MICs) of a range of clinical and control bacterial organisms were measured according to BSAC (British Society for Antimicrobial Chemotherapy) guidelines (Andrews 2001), for single agents and combinations of agents, described briefly as follows. MICs were measured by agar dilution (Experiment A) and by broth microdilution (experiment B).
(§2) Stock solutions were prepared at concentrations of 1000 mg/L and 100 mg/L. The appropriate amounts of each stock solution were added to separate Petri dishes give a range of final concentrations (after the addition of 20 mL molten agar): from 0.12 to 32 mg/L. In experiment A, a 1:1 ratio of each agent was added to the appropriate Petri dish so that a 2 mg/L plate contained 2 mg/L of each agent. Volumes (20 mL) of cooled molten IST agar (oxoid) was added to each Petri dish and mixed by swirling. After drying, the plates were stored at 4° C. and protected from light. Plates were used on the day of preparation.
(§3) The test organisms were grown overnight in 5 mL IST broth. […] For the broth microdilution, each well of a microtitre plate was inoculated with diluted overnight culture to give a final inoculum of 5×10^5 cfu/mL. […]
(§4) The MIC is the minimum amount of an antibiotic at which there is no visible growth of bacteria. Tiny single colonies or faint hazes were not counted as growth.

[2] = test system: VISA 3900 UK (VISA); assay: MIC by broth microdilution (experiment B); type: cell-based; conditions: Staphylococcus aureus, combination 1:1, value = mg/L total drug
Method: as §1, §2, §3, §4

[3] = test system: USA/VISA 5836 (VISA); assay: MIC by broth microdilution (experiment B); type: cell-based; conditions: Staphylococcus aureus, combination 1:1, value = mg/L total drug
Method: as §1, §2, §3, §4

[4] = test system: 25 different MRSA isolates and 5 VRE isolates; assay: Pooled MIC testing (MIC50, MIC90, range); type: cell-based; conditions: 25 MRSA isolates and 5 VRE isolates
Text: The MIC50 is the minimum inhibitory concentration required to inhibit the growth of 50% of the strains tested, and the MIC90, the concentration required to inhibit the growth of 90% of the strains tested.

[5] = test system: Mu50exJapan (VISA); assay: MIC by broth microdilution (experiment B); type: cell-based; conditions: Staphylococcus aureus, combination 1:1, value = mg/L total drug
Method: as §1, §2, §3, §4

[6] = test system: USA/VISA) 5827 (VISA; assay: MIC by broth microdilution (experiment B); type: cell-based; conditions: Staphylococcus aureus, combination 1:1, value = mg/L total drug
Method: as §1, §2, §3, §4

[7] = test system: MRSA; conditions: literature evidence (Taylor et al., 1987); cited from earlier work

| Compound | MIC [1] [µg/mL] | MIC [2] [µg/mL] | MIC [3] [µg/mL] | antibacterial activity against MRSA [7] | further results |
| --- | --- | --- | --- | --- | --- |
| Clc1ccc(COC(Cn2ccnc2)c2ccc(Cl)cc2Cl)c(Cl)c1 (stereo not drawn) [Miconazole, 1-[2-(2,4-Dichlorophenyl)-2-[(2,4-dichlorophenyl)methoxy]ethyl]-1H-imidazole] | 2 | 2 | 8 |  | Range of MICs [4]: 0.5 to 8 mg/L; MIC50 ([4]; concentration inhibiting growth of 50% of strains): 2 µg/mL (≈ 4.81 µM); MIC90 ([4]; concentration inhibiting growth of 90% of strains): 2 µg/mL (≈ 4.81 µM); MIC ([4]; read-out: highest MIC): 8 µg/mL (≈ 19.2 µM); MIC ([4]; read-out: lowest MIC): 0.5 µg/mL (≈ 1.2 µM) |
| Clc1ccc(COC(Cn2ccnc2)c2ccc(Cl)cc2Cl)cc1 (stereo not drawn) [Econazole, 1-[2-[(4-Chlorphenyl)methoxy]-2-(2,4-dichlorophenyl)ethyl]-1H-imidazole] | 2 | 8 | 8 |  | MIC [5]: 8 µg/mL; MIC [6]: 4 µg/mL |
| CCN(CC)C(=S)SSC(=S)N(CC)CC [Disulfiram (ethanol), disulfiram] |  |  |  | some antibacterial activity |  |
| CCN(CC)C(=S)S [DDTC, diethyldithiocarbamate] |  |  |  | some antibacterial activity |  |
